Key:
[1] = target: T1, KIF2C (Homo sapiens, UniProt Q99661); test: In vitro validation: KIF2C kinesin activity, malachite green-based phosphate colorimetric assay; format: biochemical; details: concentration that inhibits 50% of KIF2C activity
T1 construct: KIF2C (216-598 a.a.); 6xHis (C); made in house; host or cells: E. coli BL21 (DE3), pET-28a
Method: (§1) The in vitro validation was performed by measuring KIF2C kinesin activity using malachite green-based phosphate colorimetric assay (BioVision). […] The microtubules from porcine brain tubulin (Cytoskeleton) or purified from HEK293 cells in Free-style medium (293Fs) were dissolved in the BRB80 buffer (80 mM PIPES pH 6.8, 1 mM EGTA, 1 mM MgCl2, 1 mM GTP, 1 mM DTT, and 10% DMSO) at 37° C. for 2 hr. Phosphates released from kinesin-mediated ATP hydrolysis was measured by adding 30 μL of the phosphate colorimetric reagent (BioVision), incubated for 10 min, and then measured with absorbance at 650 nm. […] The cell validation was performed by measuring cytotoxicity in MDA-MB-231 cells. The cells were cultured in a 96-well plate at a confluence of 2000 cells/well with indicates compounds for specific days. When the time was up, the culture medium in the plate was aspirated and replaced with a prepared CellTiter-Glo reagent (Promega)/DMEM mixture (1:1 mix of CellTiter-Glo reagent and serum-supplemented DMEM). After incubation for 10 min, the luminescence was measured with an ELISA plate reader to determine the cell viability.
In vitro kinesin activity was measured using malachite green-based phosphate colorimetric assay (BioVision). […] The microtubules from porcine brain tubulin (Cytoskeleton) or purified from HEK293 cells in Free-style medium (293Fs) were dissolved in the BRB80 buffer (80 mM PIPES pH 6.8, 1 mM EGTA, 1 mM MgCl2, 1 mM GTP, 1 mM DTT, and 10% DMSO) at 37° C. for 2 hr. Phosphates released from kinesin-mediated ATP hydrolysis was measured by adding 30 μL of the phosphate colorimetric reagent (BioVision), incubated for 10 min, and then measured with absorbance at 650 nm.
Constructs of sN+M regions of KIF2C (216-598 a.a.), KIF2A (181-562 a.a.) and KIF2B (171-553 a.a.) with C-terminal 6×His tag were subcloned into pET-28a vector and expressed in BL21 (DE3) E. coli cells (Novartis) cultured in Luria-Bertani medium supplemented with 50 ug/mL kanamycin at 37° C. After induction with 0.8 mM IPTG for 18 hr at 20° C., the cells were pelleted by centrifugation at 6000 rpm for 30 min at 10° C. The collected pellets were resuspended in 30 mL of buffer A (20 mM Tris-HCl pH 7.5, 500 mM NaCl, 10 mM imidazole, 1% CHAPS, and 1 mM PMSF) and next subjected to a high-pressure homogenizer (EmulsiFlex-C3) for cell lysis. After removing the cell debris by centrifugation at 13000 rpm for 30 min at 10° C., the recombinant Kinesin-13 in the supernatant was purified using nickel affinity chromatography. Firstly, the supernatant was applied to the Ni-NTA column (GE Healthcare) pre-equilibrated with buffer A. Secondly, the column was washed with 10× column volumes of buffer A to remove the unwanted proteins. The washed column was then eluted with 10× column volumes of buffer containing increasing concentrations of imidazole (40, 100, 300, 1000 mM), and the majority of the recombinant Kinesin-13 protein was eventually obtained in a fraction of 300 mM imidazole. The fractions containing the recombinant Kinesin-13 were subsequently concentrated in the buffer B (20 mM Tris-HCl pH 7.5, 10 mM imidazole, 50 mM NaCl, 2 mM DTT) using an Amicon® Ultra filter (Millipore) and subjected to cation exchange column (Capto S, GE Healthcare) for further purification. The recombinant Kinesin-13 was then eluted in elution buffer (20 mM Tris-HCl pH 7.5 and 2 mM DTT) containing 400 mM of NaCl and stored at −80° C. for long-term storage.

[2] = test system: MDA-MB-231 cells; test: Cell validation: cytotoxicity in MDA-MB-231 cells (CellTiter-Glo); format: cell-based; details: cytotoxicity in MDA-MB-231 cells; for IC50: Homo sapiens
Method: as §1
The cancer cells were cultured in a 96-well plate at a confluence of 1000-2000 cells/well with indicated drugs for specific days. When the time was up, the culture medium in the plate was aspirated and replaced with a prepared CellTiter-Glo reagent/DMEM mixture (1:1 mix of CellTiter-Glo reagent and serum-supplemented DMEM). After incubation for 10 min, the luminescence (proportional to the number of living cells) was measured with an ELISA plate reader to determine the cell viability.

T1 sequence (Q99661 216-598): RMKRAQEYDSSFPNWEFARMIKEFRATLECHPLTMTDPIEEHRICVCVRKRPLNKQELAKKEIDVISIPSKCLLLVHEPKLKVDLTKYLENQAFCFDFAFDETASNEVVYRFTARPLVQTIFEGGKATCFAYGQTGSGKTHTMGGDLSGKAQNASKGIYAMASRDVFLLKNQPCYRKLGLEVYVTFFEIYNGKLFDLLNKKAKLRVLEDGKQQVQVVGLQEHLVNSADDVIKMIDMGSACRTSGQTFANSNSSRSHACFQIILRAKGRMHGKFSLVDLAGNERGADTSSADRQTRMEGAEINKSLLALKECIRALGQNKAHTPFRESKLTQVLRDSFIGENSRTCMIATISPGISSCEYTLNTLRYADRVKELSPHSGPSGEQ

| Compound | EC50 [1] | IC50 [2] | Cell validation (IC50) [2] |
| --- | --- | --- | --- |
| CC1=C(C(=O)OC(C)C)C(c2ccc(Cl)cc2)n2c(s/c(=C\c3ccc(F)cc3)c2=O)=N1 (stereo not drawn) [2S0 (22), isopropyl (Z)-5-(4-chlorophenyl)-2-(4-fluorobenzylidene)-7-methyl-3-oxo-2,3-dihydro-5H-thiazolo[3,2-a]pyrimidine-6-carboxylate] | > 100 µM | > 50 µM |  |
| CC1=C(C(=O)O)C(c2ccc(N(C)C)cc2)n2c(s/c(=C\c3ccc(OCC(=O)N4CCN(C)CC4)cc3)c2=O)=N1 (stereo not drawn) [Compound 142] | 50 to 100 µM | > 50 µM |  |
| CC1=C(C(=O)O)C(c2ccc(Cl)cc2)n2c(s/c(=C\c3ccc(OCC(=O)N4CCN(C)CC4)cc3)c2=O)=N1 (stereo not drawn) [Compound 137] | < 50 µM | > 50 µM |  |
| CC1=C(C(=O)OC(C)C)C(c2ccc(Cl)cc2)n2c(s/c(=C\c3ccc(OCc4nn[nH]n4)cc3)c2=O)=N1 (stereo not drawn) [33S0 (115), isopropyl (Z)-2-(4-((2H-tetrazol-5-yl)methoxy)benzylidene)-5-(4-chlorophenyl)-7-methyl-3-oxo-2,3-dihydro-5H-thiazolo[3,2-a]pyrimidine-6-carboxylate] | < 20 µM | > 50 µM |  |
| COC(=O)C1=C(C)N=c2s/c(=C\c3ccc(OCC(=O)N4CCN(C)CC4)cc3)c(=O)n2C1c1ccc(Cl)cc1 (stereo not drawn) [26S0 (93)] | 50 to 100 µM |  | + + |
| CC1=C(C(=O)CC(C)C)C(c2ccc(Cl)cc2)n2c(s/c(=C\c3ccc(OCC(=O)N4CCN(C)CC4)cc3)c2=O)=N1 (stereo not drawn) [27S0 (98), (Z)-5-(4-chlorophenyl)-7-methyl-6-(3-methylbutanoyl)-2-(4-(2-(4-methylpiperazin-1-yl)-2-oxoethoxy)benzylidene)-5H-thiazolo[3,2-a]pyrimidin-3(2H)-one] | 50 to 100 µM |  | + + |
| C#CCOc1ccc(/C=c2\sc3n(c2=O)C(c2ccc(Cl)cc2)C(C(=O)OC(C)C)=C(C)N=3)cc1 (stereo not drawn) [36S0 (116), isopropyl (Z)-5-(4-chlorophenyl)-7-methyl-3-oxo-2-(4-(prop-2-yn-1-yloxy)benzylidene)-2,3-dihydro-5H-thiazolo[3,2-a]pyrimidine-6-carboxylate] | > 100 µM | > 50 µM |  |
| CC1=C(C(=O)OC(C)(C)C)C(c2ccc(Cl)cc2)n2c(s/c(=C\c3ccc(OCC(=O)O)cc3)c2=O)=N1 (stereo not drawn) [53S0 (80), (Z)-2-(4-((6-(tert-butoxycarbonyl)-5-(4-chlorophenyl)-7-methyl-3-oxo-5H-thiazolo[3,2-a]pyrimidin-2(3H)-ylidene)methyl)phenoxy)acetic acid] | 50 to 100 µM | > 50 µM |  |
| CC1=C(C(=O)OC(C)C)C(c2ccc(Cl)cc2)n2c(s/c(=C\c3ccc4c(c3)OCO4)c2=O)=N1 (stereo not drawn) [34S0 (24), isopropyl (Z)-2-(benzo[d][1,3]dioxol-5-ylmethylene)-5-(4-chlorophenyl)-7-methyl-3-oxo-2,3-dihydro-5H-thiazolo[3,2-a]pyrimidine-6-carboxylate] | > 100 µM | > 50 µM |  |

Now from value to molecule, other results behind:

| EC50 [1] | Compound | IC50 [2] | Cell validation (IC50) [2] |
| --- | --- | --- | --- |
| < 50 µM | CC1=C(C(=O)OC(C)C)C(c2ccc(F)cc2)n2c(s/c(=C\c3ccc(OCC(=O)O)cc3)c2=O)=N1 (stereo not drawn) [9S0 (32), (4-(((2Z)-5-(4-fluorophenyl)-7-methyl-3-oxo-6-((propan-2-yloxy)carbonyl)-5H-[1,3]thiazolo[3,2-a]pyrimidin-2(3H)-ylidene)methyl)phenoxy)acetic acid] | > 50 µM |  |
| 50 to 100 µM | CC1=C(C(=O)OC(C)C)C(c2ccc(Cl)cc2)n2c(s/c(=C\c3ccc(OCC(=O)NCC4CCN(C)CC4)cc3)c2=O)=N1 (stereo not drawn) [Compound 138] | 20 to 50 µM |  |
| 50 to 100 µM | CC1=C(C(=O)OC(C)(C)C)C(c2ccc(N(C)C)cc2)n2c(s/c(=C\c3ccc(OCC(=O)N4CCN(C)CC4)cc3)c2=O)=N1 (stereo not drawn) [Compound 144] | 20 to 50 µM |  |
| > 100 µM | COc1ccc(C2C(C(=O)OC(C)C)=C(C)N=c3s/c(=C\c4ccc(OCC(=O)N5CCN(C)CC5)cc4)c(=O)n32)cc1 (stereo not drawn) [42S0 (61), isopropyl (Z)-5-(4-methoxyphenyl)-7-methyl-2-(4-(2-(4-methylpiperazin-1-yl)-2-oxoethoxy)benzylidene)-3-oxo-2,3-dihydro-5H-thiazolo[3,2-a]pyrimidine-6-carboxylate] | 20 to 50 µM |  |
| > 100 µM | CC1=C(C(=O)OC(C)(C)C)C(c2ccc(Cl)cc2)n2c(s/c(=C\c3ccc(OCC(=O)N4CCN(C)CC4)cc3)c2=O)=N1 (stereo not drawn) [25S0 (95)] |  | + + |
| < 50 µM | CC1=C(C(=O)OC(C)C)C(c2ccc(Cl)cc2)n2c(s/c(=C\c3ccc(OCC(=O)N4CCC(N(C)C)CC4)cc3)c2=O)=N1 (stereo not drawn) [23S0 (18), propan-2-yl (2Z)-5-(4-chlorophenyl)-2-(4-(2-(4-(dimethylamino)piperidin-1-yl)-2-oxoethoxy)benzylidene)-7-methyl-3-oxo-2,3-dihydro-5H-[1,3]thiazolo[3,2-a]pyrimidine-6-carboxylate] |  | + + + |
| > 100 µM | CC1=C(C(=O)OC(C)C)C(c2ccc(Cl)cc2)n2c(s/c(=C\c3ccc(OCC(=O)N4CCC(O)CC4)cc3)c2=O)=N1 (stereo not drawn) [31S0 (20), isopropyl (Z)-5-(4-chlorophenyl)-2-(4-(2-(4-hydroxypiperidin-1-yl)-2-oxoethoxy)benzylidene)-7-methyl-3-oxo-2,3-dihydro-5H-thiazolo[3,2-a]pyrimidine-6-carboxylate] | > 50 µM |  |
| < 50 µM | COc1ccc(C2C(C(=O)OC(C)C)=C(C)N=c3s/c(=C\c4ccc(OCC(=O)O)cc4)c(=O)n32)cc1 (stereo not drawn) [41S0 (60), (Z)-2-(4-((6-(isopropoxycarbonyl)-5-(4-methoxyphenyl)-7-methyl-3-oxo-5H-thiazolo[3,2-a]pyrimidin-2(3H)-ylidene)methyl)phenoxy)acetic acid] | > 50 µM |  |
| < 50 µM | CC1=C(C(=O)O)C(c2ccc(N(C)C)cc2)n2c(s/c(=C\c3ccc(OCC(=O)N4CCC(N5CCN(C)CC5)CC4)cc3)c2=O)=N1 (stereo not drawn) [Compound 149] | > 50 µM |  |
| < 50 µM | CC1=C(C(=O)OC(C)C)C(c2ccc(Cl)cc2)n2c(s/c(=C\c3ccc(OCC(=O)N4CCC(N(C)C)CC4)cc3)c2=O)=N1.O=C(O)/C=C\C(=O)O (stereo not drawn) [23S9 (134), isopropyl (Z)-5-(4-chlorophenyl)-2-(4-(2-(4-(dimethylamino)piperidin-1-yl)-2-oxoethoxy)benzylidene)-7-methyl-3-oxo-2,3-dihydro-5H-thiazolo[3,2-a]pyrimidine-6-carboxylate maleate] |  | + + + |
| > 100 µM | CCOC(=O)C1=C(C)N=c2s/c(=C\c3ccc(OCC(=O)OC)cc3)c(=O)n2[C@@H]1c1ccc(Cl)cc1 [44S0 (128)] | > 50 µM |  |
| > 100 µM | CNC(=O)COc1ccc(/C=c2\sc3n(c2=O)C(c2ccc(F)cc2)C(C(=O)OC(C)C)=C(C)N=3)cc1 (stereo not drawn) [10S0 (35), isopropyl (Z)-5-(4-fluorophenyl)-7-methyl-2-(4-(2-(methylamino)-2-oxoethoxy)benzylidene)-3-oxo-2,3-dihydro-5H-thiazolo[3,2-a]pyrimidine-6-carboxylate] | > 50 µM |  |

From patent US20250129101A1, “Compound, Pharmaceutical Composition Comprising the Same and Method for Treating Cancer Using the Same” (NATIONAL TSING HUA UNIVERSITY, priority 2023, published 2025)
